# Source: US20240041828A1, “Combination Therapeutics Comprising Nrf2 Agonists and Antivirals for Treating Viral Infections” (The Regents of the University of California, priority 2022, published 2024)
# “Also recorded” adds a separate entry of the source. Counter-ions that a name gives are not always drawn. Like-named read-outs stand apart in the source and are kept apart here.
# Legend:
# Assay type in all cases: cell-based
# [1] = test system: B.1.617.2 (Delta) SARS-CoV-2 variant; test: microbe, parasite or virus in culture; conditions: for IC50: Severe acute respiratory syndrome coronavirus 2, A549
# [2] = test system: SARS-coV-2 Omicron variant
# [3] = test system: B.1.617.2 (Delta) SARS-CoV-2 variant
Compound,IC50 compared to comparator drug [1],"anti-SARS-CoV-2 activity (words, figure legend) [1]",IC50 [1] [µM],IC50 compared to comparator drug [2],"anti-SARS-CoV-2 activity (words, figure legend) [2]","drug interaction (words, figure legend) [3]",IC50 compared to comparator drug ([1]; methanesulfonate),"anti-SARS-CoV-2 activity (words, figure legend) ([1]; methanesulfonate)",better antiviral effect in ALI HAE system compared to Paxlovid ([2]; ALI HAE system),"anti-SARS-CoV-2 activity (words, figure legend) ([2]; methanesulfonate)","drug interaction (words, figure legend) ([3]; methanesulfonate)"
"COC(=O)/C=C/C(=O)OC [DMF, Dimethyl fumarate]",higher IC50 compared to Paxlovid™; also recorded: higher IC50 compared to molnupiravir,anti-SARS-CoV-2 activity in single layer human airway cells that is lower than Paxlovid™; also recorded: strong anti-SARS-CoV-2 activity in single layer human airway cells that is higher than molnupiravir,16.7,IC50 that was similar to Paxlovid™; also recorded: higher than molnupiravir IC50,stronger anti-SARS-CoV-2 activity in multilayer human airway cell culture than molnupiravir,additive anti-SARS-CoV-2 activity with Paxlovid™; also recorded: additive anti-SARS-CoV-2 activity with molnupiravir,,,,,
"COC1=C(OC)C(=O)C(CCCCCCCCCC[P+](c2ccccc2)(c2ccccc2)c2ccccc2)=C(C)C1=O.CS(=O)(=O)[O-] [Mito-MES, 10-(4,5-dimethoxy-2-methyl-3,6-dioxo-1,4-cyclohexadienyl) decyl triphenylphosphonium methanesulfonate]",,,0.144,higher than Paxlovid™ IC50,,,higher IC50 compared to molnupiravir,strong anti-SARS-CoV-2 activity in single layer human airway cells that is similar to Paxlovid™; also recorded: strong anti-SARS-CoV-2 activity in single layer human airway cells that is higher than molnupiravir,about 1000 fold,stronger anti-SARS-CoV-2 activity in multilayer human airway cell culture than Paxlovid™; also recorded: stronger anti-SARS-CoV-2 activity in multilayer human airway cell culture than molnupiravir,additive anti-SARS-CoV-2 activity with Paxlovid™; also recorded: additive anti-SARS-CoV-2 activity with molnupiravir
"CC(C)C(=O)OC[C@H]1O[C@@H](n2ccc(NO)nc2=O)[C@H](O)[C@@H]1O [molnupiravir, Molnupiravir]",,,31,,,,,,,,
